In article PMC8253220, “Molecular design, synthesis and in vitro biological evaluation of thienopyrimidine–hydroxamic acids as chimeric kinase HDAC inhibitors: a challenging approach to combat cancer” (Journal of Enzyme Inhibition and Medicinal Chemistry, 2021):
Several values for one entry are separate records, joined by “and”; a condition that tells them apart may be missing. Identical values can stand only once.

Columns and labels:
Assay in all cases: NCI one-dose screen
Assay type in all cases: cell-based, human
A549/ATCC = settings: NSCLC A549/ATCC, 10 µM single dose
Summary of the method: (§1)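 At 10 μM, a single concentration, compounds were evaluated for antiproliferative effect in the NCI 60-line screen, with growth expressed relative to untreated control cells.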

ACHN = settings: Renal ACHN, 10 µM single dose
Summary of the method: as §1

BT-549 = settings: Breast BT-549, 10 µM single dose
Summary of the method: as §1

CAKI-1 = settings: Renal CAKI-1, 10 µM single dose
Summary of the method: as §1

CCRF-CEM = settings: Leukemia CCRF-CEM, 10 µM single dose
Summary of the method: as §1

COLO 205 = settings: Colon COLO 205, 10 µM single dose
Summary of the method: as §1

DU-145 = settings: Prostate DU-145, 10 µM single dose
Summary of the method: as §1

EKVX = settings: NSCLC EKVX, 10 µM single dose
Summary of the method: (§2)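 Following the standard NCI-60 protocol, compounds were applied once at 10 μM to all 60 cancer lines. Read-out is percent growth versus untreated controls, expressed as inhibition %.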

HCT-116 = settings: Colon HCT-116, 10 µM single dose
Summary of the method: as §1

HL-60(TB) = settings: Leukemia HL-60(TB), 10 µM single dose
Summary of the method: as §1

HOP-62 = settings: NSCLC HOP-62, 10 µM single dose
Summary of the method: (§3)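 Compounds were tested at a single dose of 10 μM across the full NCI-60 cell line panel. Growth was expressed as percent growth relative to untreated control cells, reported as percent inhibition.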

HS 578T = settings: Breast HS 578T, 10 µM single dose
Summary of the method: as §1

LOX IMVI = settings: Melanoma LOX IMVI, 10 µM single dose
Summary of the method: as §1

MALME-3M = settings: Melanoma MALME-3M, 10 µM single dose
Summary of the method: as §1

MCF7 = settings: Breast MCF7, 10 µM single dose
Summary of the method: (§4)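 One concentration (10 μM) applied to each line of the full NCI-60 panel; percent growth compared against untreated cells.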

MDA-MB-231/ATCC = settings: Breast MDA-MB-231/ATCC, 10 µM single dose
Summary of the method: as §1

MOLT-4 = settings: Leukemia MOLT-4, 10 µM single dose
Summary of the method: as §4

NCI-H226 = settings: NSCLC NCI-H226, 10 µM single dose
Summary of the method: as §2

NCI-H322M = settings: NSCLC NCI-H322M, 10 µM single dose
Summary of the method: as §1

NCI-H460 = settings: NSCLC NCI-H460, 10 µM single dose
Summary of the method: as §1

NCI-H522 = settings: NSCLC NCI-H522, 10 µM single dose
Summary of the method: as §2

NCI/ADR-RES = settings: Ovarian NCI/ADR-RES, 10 µM single dose
Summary of the method: as §1

OVCAR-3 = settings: Ovarian OVCAR-3, 10 µM single dose
Summary of the method: as §1

OVCAR-8 = settings: Ovarian OVCAR-8, 10 µM single dose
Summary of the method: as §1

PC-3 = settings: Prostate PC-3, 10 µM single dose
Summary of the method: as §2

RXF 393 = settings: Renal RXF 393, 10 µM single dose
Summary of the method: as §1

SF-268 = settings: CNS SF-268, 10 µM single dose
Summary of the method: as §4

SF-295 = settings: CNS SF-295, 10 µM single dose
Summary of the method: as §1

SF-539 = settings: CNS SF-539, 10 µM single dose
Summary of the method: as §4

SK-MEL-28 = settings: Melanoma SK-MEL-28, 10 µM single dose
Summary of the method: as §2

SN12C = settings: Renal SN12C, 10 µM single dose
Summary of the method: as §1

SNB-19 = settings: CNS SNB-19, 10 µM single dose
Summary of the method: as §3

SR = settings: Leukemia SR, 10 µM single dose
Summary of the method: as §1

SW-620 = settings: Colon SW-620, 10 µM single dose
Summary of the method: as §2

TK-10 = settings: Renal TK-10, 10 µM single dose
Summary of the method: as §1

U251 = settings: CNS U251, 10 µM single dose
Summary of the method: as §2

UACC-62 = settings: Melanoma UACC-62, 10 µM single dose
Summary of the method: as §1

Cc1c(C(=O)NCCC(=O)NO)sc2ncnc(Nc3ccc(NC(=O)Nc4ccccc4)cc3)c12 [Compound 11a, 1–(4-(6-((3-(hydroxyamino)-3-oxopropyl)carbamoyl)-5-methylthieno[2,3-d]pyrimidin-4-ylamino)phenyl)-3-phenylurea]
Growth Percent (A549/ATCC): 97.7% and 97.77% | Growth Percent (ACHN): 101.6% and 101.68% | Growth Percent (BT-549): 104.9% | Growth Percent (CAKI-1): 94.5% and 94.51% | Growth Percent (CCRF-CEM): 106.8% and 106.84% | Growth Percent (COLO 205): 113.5% and 113.57% | Growth Percent (DU-145): 110.81% | Growth Percent (EKVX): 94.6% and 94.62% | Growth Percent (HCT-116): 102.9% and 102.94% | Growth Percent (HL-60(TB)): 103.5% and 103.58% | Growth Percent (HOP-62): 102.3% and 102.39% | Growth Percent (HS 578T): 99.6% and 99.62% | Growth Percent (LOX IMVI): 95.3% and 95.38% | Growth Percent (MALME-3M): 103.6% and 103.62% | Growth Percent (MCF7): 92.3% | Growth Percent (MDA-MB-231/ATCC): 97.6% and 97.67% | Growth Percent (MOLT-4): 110.5% and 110.52% | Growth Percent (NCI-H226): 90.4% and 90.42% | Growth Percent (NCI-H322M): 101.2% and 101.26% | Growth Percent (NCI-H460): 101.8% and 101.81% | Growth Percent (NCI-H522): 92.8% | Growth Percent (NCI/ADR-RES): 99.0% and 99.07% | Growth Percent (OVCAR-3): 102.6% and 102.61% | Growth Percent (OVCAR-8): 101.0% and 101.03% | Growth Percent (PC-3): 101.7% and 101.73% | Growth Percent (RXF 393): 107.3% and 107.33% | Growth Percent (SF-268): 96.8% and 96.85% | Growth Percent (SF-295): 95.2% and 95.29% | Growth Percent (SF-539): 90.3% and 90.31% | Growth Percent (SK-MEL-28): 105.1% and 105.11% | Growth Percent (SN12C): 101.4% and 101.42% | Growth Percent (SNB-19): 97.5% and 97.59% | Growth Percent (SR): 108.7% and 108.77% | Growth Percent (SW-620): 103.0% and 103.02% | Growth Percent (TK-10): 97.6% and 97.69% | Growth Percent (U251): 96.9% and 96.93% | Growth Percent (UACC-62): 98.7% and 98.79%

Cc1c(C(=O)NCCCC(=O)NO)sc2ncnc(Nc3ccc(Cl)cc3)c12 [Compound 20c, 4–(4-chlorophenylamino)-N-(4-(hydroxyamino)-4-oxobutyl)-5-methylthieno[2,3-d]pyrimidine-6-carboxamide]
Growth Percent (A549/ATCC): 104.4% and 104.46% | Growth Percent (ACHN): 105.1% and 105.18% | Growth Percent (BT-549): 116.5% | Growth Percent (CAKI-1): 93.0% and 93.08% | Growth Percent (CCRF-CEM): 108.0% and 108.09% | Growth Percent (COLO 205): 117.8% and 117.81% | Growth Percent (DU-145): 116.8% and 116.86% | Growth Percent (EKVX): 90.5% and 90.52% | Growth Percent (HCT-116): 108.2% and 108.21% | Growth Percent (HL-60(TB)): 103.4% and 103.41% | Growth Percent (HOP-62): 102.5% and 102.52% | Growth Percent (HS 578T): 99.4% and 99.45% | Growth Percent (LOX IMVI): 99.2% and 99.24% | Growth Percent (MALME-3M): 112.5% and 112.53% | Growth Percent (MCF7): 91.4% and 91.44% | Growth Percent (MDA-MB-231/ATCC): 95.4% and 95.46% | Growth Percent (MOLT-4): 108.7% and 108.77% | Growth Percent (NCI-H226): 92.0% and 92.02% | Growth Percent (NCI-H322M): 101.3% and 101.35% | Growth Percent (NCI-H460): 101.9% and 101.95% | Growth Percent (NCI-H522): 91.2% and 91.22% | Growth Percent (NCI/ADR-RES): 100.5% and 100.58% | Growth Percent (OVCAR-3): 106.5% and 106.57% | Growth Percent (OVCAR-8): 105.5% | Growth Percent (PC-3): 101.4% and 101.49% | Growth Percent (RXF 393): 109.5% and 109.55% | Growth Percent (SF-268): 97.2% and 97.29% | Growth Percent (SF-295): 101.19% | Growth Percent (SF-539): 95.3% and 95.36% | Growth Percent (SK-MEL-28): 112.3% and 112.39% | Growth Percent (SN12C): 100.0% and 100.04% | Growth Percent (SNB-19): 99.1% and 99.11% | Growth Percent (SR): 102.6% and 102.62% | Growth Percent (SW-620): 102.3% and 102.37% | Growth Percent (TK-10): 152.2% and 152.23% | Growth Percent (U251): 103.1% and 103.12% | Growth Percent (UACC-62): 98.8% and 98.83%
